Assay results as given in PubChem BioAssay AID624446 (The Scripps Research Institute Molecular Screening Center, 2012).
Calls of active or inactive are those of the source.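 The calls were made as follows: active = compounds blocking protein phosphatase 1 with half-maximal inhibitory concentration IC50 under 50 µM; inactive = IC50 of 50 µM or more.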

Target: Serine/threonine-protein phosphatase PP1-alpha catalytic subunit (Homo sapiens) (UniProt P62136)
Test: dose-dependent inhibition of PP1 catalytic subunit – biochemical, 32P-phosphohistone, radiolabel, dose response, round 5, selectivity assay for PP5 inhibitor project, late-stage follow-up (AID 624446)
Details: purified PP1alpha, 32P-phosphohistone dephosphorylation, scintillation

Serine/threonine-protein phosphatase PP1-alpha catalytic subunit (Homo sapiens), sequence (P62136 whole entry, looked up): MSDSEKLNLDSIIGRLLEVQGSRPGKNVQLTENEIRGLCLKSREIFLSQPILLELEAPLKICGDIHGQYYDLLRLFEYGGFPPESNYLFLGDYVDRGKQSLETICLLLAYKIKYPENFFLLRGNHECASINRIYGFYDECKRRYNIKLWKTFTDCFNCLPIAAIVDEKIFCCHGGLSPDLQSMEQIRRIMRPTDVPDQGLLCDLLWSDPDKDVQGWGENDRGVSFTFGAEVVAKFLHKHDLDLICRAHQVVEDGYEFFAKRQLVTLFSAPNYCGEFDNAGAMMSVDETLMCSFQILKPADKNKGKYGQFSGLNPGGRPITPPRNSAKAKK

- IC50: inactive
SMILES: CC(C)Oc1ccccc1-c1n[nH]nc1C(=O)O
